Tests used:
[1] = test system: post-confluent NHEK cells; assay: Growth of re-cultured post-confluent (cell-cell contact growth arrested) NHEK's; format: cell-based, human; conditions: for concentration causing optimal cell growth: post-confluent NHEK
Description: Neonatal human epidermal foreskin keratinocytes (NHEKs) were used to test the ability of compounds to reverse, arrest or slow down cellular ageing. These cells typically undergo approximately 35 cell divisions before the Hayflick limit is reached but they can be induced to undergo premature senescence and, what has been understood to be, irreversible growth arrest earlier than this by induction of cell-cell contact growth inhibition when cultured at high cell density/to confluence (Poumay & Pittelkow 1995 J Inv Dermatol 104, p 271-276). The inventors were thus inspired to culture post-confluent cells and assess the effect of test compounds on the growth, telomere loss and secretion of inflammatory factors by such cells. An experimental schematic is provided as FIG. 1. 1.1 Culture of Early Passage NHEK's in the Presence and Absence of y27632 Pooled donor neonatal NHEK's (Cat No C-12005, Lot No 456Z001.1, PromoCell GmBH), serum-free PromoCell Keratinocyte Growth Medium 2 (KSFM, Cat No C20011. Lot No 472M197), CaCl2) (Lot No 471055) and Supplements (Lot No 472M013) were all obtained from PromoCell GmBH. NHEK's were thawed directly into a single T75 in 20 mls of complete KSFM (CaCl2 & Supplements), incubated over night at 37° C., 5% CO2 and the medium changed the following day. After 3 days the cells were 80% confluent and were passaged (Ist) using 0.05% Trypsin+EDTA (Gibco) into ×2 T75 flasks at a split ratio of 1:4. After overnight incubation at 37° C., 5% CO2, the cultures were at 30% confluence and 10 μM Y27632 (Cat No 688000, Lot No 2884132, Merck) was added to one of the flasks. […] Fresh T75 flasks were seeded with 5.0×10^5 cells from each in their respective medium. […] Fresh T75 flasks were seeded, as described previously, and also 1.2×10^4 NHEK cells/well were seeded into 24 well plates, incubated overnight to allow cell attachment, and the following subsequently added to separate wells: • A. NHEK in complete KSFM • B. NHEK+Y27632 in complete KSFM • C. Y27632 treated NHEK transferred to complete KSFM (Y27632 Removed) • D. NHEK transferred to complete KSFM+500 nM Tadalafil • E. NHEK transferred to complete KSFM+750 nM Tadalafil • F. NHEK transferred to complete KSFM+1000 nM Tadalafil • G. NHEK transferred to complete KSFM+1250 nM Tadalafil • H. NHEK transferred to complete KSFM+50 nM Fenbendazole • I. NHEK transferred to complete KSFM+100 nM Fenbendazole • J. NHEK transferred to complete KSFM+150 nM Fenbendazole • K. NHEK transferred to complete KSFM+200 nM Fenbendazole All drugs were added 24 hours after seeding. […] FIG. 2B is an example of the appearance of post-confluent cells.
Post-confluent NHEK's (FIG. 2B) were subsequently passaged (4th) into a fresh 24 well plate using a split ratio of 1 in 4 in 2 mls of fresh complete KSFM. These were left overnight to attach and the same compounds added (as shown in A-K of 1.1) followed by incubation for a further 24 hours and subsequently photographed.

[2] = Canine case studies: biological age by breed-specific telomere length (DNA-My-Dog); format: in vivo; conditions: for reduction in biological age: versus chronological age
Method: In 2017, a […] (D.O.B Jan. 5, 2008) female Lhasa Apso/Jack Russell/Shih Tzu cross-breed (confirmed by genetic breed analysis: DNA-My-Dog) with a body mass of 9 Kg, was treated with 0.6 gm/day of 22.2% Fenbendazole (Panacur® granules) which was given orally for 3 consecutive days/week for 1 month and this cycle was repeated every 3rd month giving 4 cycles/annum providing a total of 16×1 month treatment cycles spread over a period of 4 yrs up to the present day.
Subject C2A's chronological age was verified by microchip implantation date using the Petlog database and, in March 2022, a cheek epithelium swab was sent to DNA-My-Dog for genetic assessment of breed composition and biological age by analysis of breed-specific telomere length. The results, returned on the 30 Mar. 2022, reported a biological age of 3 yrs old. Three more treatment cycles were subsequently administered and a repeat biological age telomere test carried out on the 30 Sep. 2022 which also returned a biological age of 3 yrs old. […] Translating these findings to humans, a 14 yr old Lhasa Apso has an equivalent human age of about 72 whereas a 3 yr old has an equivalent human age of about 28. This indicates a potential reduction in human age of 44 yrs which would equate to a 61% reduction of biological age in humans.
In 2017, a 4 yr old Jack Russell/Poodle/Maltese cross-breed (Confirmed by genetic breed analysis: DNA-My-Dog) with a body mass of 9.2 Kg was treated with 1.0 gm/day of 22.2% Fenbendazole Panacur® granules for 3 days per week and 4 days without. The dosing schedule of 3 days with, 4 days without treatment per week was continued for 3 months after which the dose was reduced to 0.6 gm/day of Panacur® and treatment alternated between 1 month with and 1 month without for 19 months providing a total of 11×1 month treatment cycles over the whole time period. After this, treatment was discontinued for 2 years and 5 months up to 12 May 2022 when a cheek swab was taken for analysis of biological age and this was repeated 5 months later on the 30 Sep. 2022.
The initial reason for treating this animal was that it had been diagnosed with an anal sac adenocarcinoma and, at the time, it was decided to explore the use of Fenbendazole as an alternative treatment. […] Subject C2B's birth date was May 2014 giving a chronological age of 8 yrs which was verified by microchip implantation date using the Petlog database. Following the outlined treatment with Fenbendazole, in April 2022, a cheek epithelium swab was sent to DNA-My-Dog for assessment of breed composition and biological age by analysis of breed-specific telomere length. The result, returned on the 12 May 2022, reported a biological age of 1 yr old indicating a reduction in biological age of 7 yrs. which is equivalent to ˜90% reduction in biological age. […] After a further gap of 5 months without treatment, on the 30 Sep. […] However, unlike subject C2A, no treatment was given during this period so the most likely explanation is that the efficacy time-limit of the initial treatment has been exceeded.

[3] = test system: post-confluent NHEK cells; assay: Growth of re-cultured post-confluent (cell-cell contact growth arrested) NHEK's; format: cell-based, human
[4] = dog C2A findings translated to equivalent human age

COC(=O)Nc1nc2ccc(Sc3ccccc3)cc2[nH]1 [Fenbendazole, methyl 5-(phenylthio)-2-benzimidazole carbamate]
continued growth of post-confluent NHEK's (phase contrast) ([1]; passage 4, 24 hours with compound, 10 μM Y27632, 500-1250 nM Tadalafil, 50-200 nM Fenbendazole, FIG. 3): all exhibited cell growth | concentration causing optimal cell growth ([1]; cultured for a further 24 hrs, FIG. 4): 100 to 150 nM | concentration causing optimal cell growth ([1]; passage 4, 24 hours, FIG. 3): 100 to 150 nM | potential reduction in human age [2, 4]: 44 yrs | reduction of biological age in humans [2, 4]: 61% | biological age (repeat test) ([2]; dog C2A, 30 Sep. 2022, after three more treatment cycles): 3 yrs | biological age ([2]; dog C2A, chronological age 14 yrs, result 30 Mar. 2022, 0.6 gm/day Panacur granules 3 days/week, 1 month cycles over 4 yrs): 3 yrs | reduction in biological age ([2]; dog C2A): 11 yrs | reduction in biological age ([2]; dog C2A, over 4 years): ~80% | biological age (repeat test) ([2]; dog C2B, 30 Sep. 2022, further 5 months without treatment): 3 yrs | biological age ([2]; dog C2B, chronological age 8 yrs, result 12 May 2022, 19 months treatment then 2 yrs 5 months without): 1 yr | number of viable cells (Via-1 Assay) following withdrawal of drug ([3]; treatment P3-P5 only, withdrawn following passage 6, 5 days, FIG. 5): 9.7×10^4 cells/ml | number of viable cells (Via-1 Assay) ([3]; treatment continued for passages P3-P6, 5 days after passage 6, FIG. 5): 9.5×10^4 cells/ml
